Reference: publication PMC8936486 (PLoS Biology, 2022)

What was measured:
[1] = biological target: T1, SaFtsZf (Staphylococcus aureus, UniProt P0A029); assay: light scattering of polymer assembly; format: biochemical; conditions: 10 mM MgCl2, pH 6.5, 25 °C
T1 construct: gene ftsZ
T1 sequence (P0A029 1-390): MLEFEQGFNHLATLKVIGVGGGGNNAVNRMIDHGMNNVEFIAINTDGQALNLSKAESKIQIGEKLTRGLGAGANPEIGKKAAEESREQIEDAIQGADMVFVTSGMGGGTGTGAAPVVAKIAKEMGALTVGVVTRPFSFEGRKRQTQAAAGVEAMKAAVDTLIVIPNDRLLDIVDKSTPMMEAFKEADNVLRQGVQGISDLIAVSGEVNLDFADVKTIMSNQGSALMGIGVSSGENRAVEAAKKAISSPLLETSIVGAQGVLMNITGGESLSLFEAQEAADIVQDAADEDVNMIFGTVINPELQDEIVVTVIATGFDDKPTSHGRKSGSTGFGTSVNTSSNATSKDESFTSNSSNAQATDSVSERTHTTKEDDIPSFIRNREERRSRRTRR

[2] = biological target: T2, MjFtsZ (Methanocaldococcus jannaschii, UniProt Q57816); assay: light scattering of polymer assembly; format: biochemical; conditions: 5 mM BeF3- with GTP, 55 °C; stabilizes polymers, repolymerization after disassembly
T2 construct: gene ftsZ1; full-length, nucleotide-devoid (apo)

[3] = biological target: T1, SaFtsZf; assay: electron microscopy of polymers; format: biochemical; conditions: MES assembly buffer, 25 °C
[4] = biological target: the molecule itself; assay: right angle light scattering; self-assembly of full-length FtsZ with 1 mM GTP and MgCl2 in MES assembly buffer; SaFtsZf 49 uM and EcFtsZ 25 uM at 25 C, apo-MjFtsZ 15 uM at 55 C; SaFtsZf polymers also seen by electron microscopy

[F][Be-]([F])[F] [BeF3^−]
light scattering of polymer assembly ([1]; 1-5 mM BeF3- with 1 mM GTP, stabilizes polymers): Assembly of full-length SaFtsZ is stabilized by BeF3^− | light scattering of polymer assembly [2]: Repolymerization with BeF3^− after disassembly was observed for MjFtsZ

Nc1nc2c(ncn2[C@@H]2O[C@H](COP(=O)(O)CP(=O)(O)OP(=O)(O)O)[C@@H](O)[C@H]2O)c(=O)[nH]1 [GMPCPP, guanosine-5′-[(α,β)-methyleno]triphosphate]
electron microscopy of polymers [3]: Polymers formed with GMPCPP

Nc1nc2c(ncn2[C@@H]2O[C@H](COP(=O)(O)OP(=O)(O)OP(=O)(O)O)[C@@H](O)[C@H]2O)c(=O)[nH]1 [GTP]
light scattering of polymer assembly ([1]; 1 mM GTP): The sample with GTP depolymerized upon nucleotide consumption (blue line)

B1: full-length FtsZ from S. aureus (natural protein, Staphylococcus aureus Mu50/ATCC 700699, UniProt P0A029 1-390, looked up)
chain: MLEFEQGFNHLATLKVIGVGGGGNNAVNRMIDHGMNNVEFIAINTDGQALNLSKAESKIQIGEKLTRGLGAGANPEIGKKAAEESREQIEDAIQGADMVFVTSGMGGGTGTGAAPVVAKIAKEMGALTVGVVTRPFSFEGRKRQTQAAAGVEAMKAAVDTLIVIPNDRLLDIVDKSTPMMEAFKEADNVLRQGVQGISDLIAVSGEVNLDFADVKTIMSNQGSALMGIGVSSGENRAVEAAKKAISSPLLETSIVGAQGVLMNITGGESLSLFEAQEAADIVQDAADEDVNMIFGTVINPELQDEIVVTVIATGFDDKPTSHGRKSGSTGFGTSVNTSSNATSKDESFTSNSSNAQATDSVSERTHTTKEDDIPSFIRNREERRSRRTRR
notes: full-length FtsZ from methicillin-resistant S. aureus Mu50/ATCC 700699; also called SaFtsZf; full-length SaFtsZ
binding result [4]: binds

B2: full-length FtsZ from E. coli (natural protein, Escherichia coli, UniProt P0A9A6 1-383, looked up)
chain: MFEPMELTNDAVIKVIGVGGGGGNAVEHMVRERIEGVEFFAVNTDAQALRKTAVGQTIQIGSGITKGLGAGANPEVGRNAADEDRDALRAALEGADMVFIAAGMGGGTGTGAAPVVAEVAKDLGILTVAVVTKPFNFEGKKRMAFAEQGITELSKHVDSLITIPNDKLLKVLGRGISLLDAFGAANDVLKGAVQGIAELITRPGLMNVDFADVRTVMSEMGYAMMGSGVASGEDRAEEAAEMAISSPLLEDIDLSGARGVLVNITAGFDLRLDEFETVGNTIRAFASDNATVVIGTSLDPDMNDELRVTVVATGIGMDKRPEITLVTNKQVQQPVMDRYQQHGMAPLTQEQKPVAKVVNDNAPQTAKEPDYLDIPAFLRKQAD
notes: full-length FtsZ from Escherichia coli, wild-type protein; also called EcFtsZ; Escherichia coli FtsZ; source: purified as described [54]
binding result [4]: binds

B3: nucleotide-devoid, full-length FtsZ from M. jannaschii (natural protein, Methanocaldococcus jannaschii, UniProt Q57816 1-364, looked up)
chain: MKFLKNVLEEGSKLEEFNELELSPEDKELLEYLQQTKAKITVVGCGGAGNNTITRLKMEGIEGAKTVAINTDAQQLIRTKADKKILIGKKLTRGLGAGGNPKIGEEAAKESAEEIKAAIQDSDMVFITCGLGGGTGTGSAPVVAEISKKIGALTVAVVTLPFVMEGKVRMKNAMEGLERLKQHTDTLVVIPNEKLFEIVPNMPLKLAFKVADEVLINAVKGLVELITKDGLINVDFADVKAVMNNGGLAMIGIGESDSEKRAKEAVSMALNSPLLDVDIDGATGALIHVMGPEDLTLEEAREVVATVSSRLDPNATIIWGATIDENLENTVRVLLVITGVQSRIEFTDTGLKRKKLELTGIPKI
notes: full-length FtsZ from Methanocaldococcus jannaschii, nucleotide-devoid; also called apo-MjFtsZ; MjFtsZ; source: prepared as reported [55]
binding result [4]: binds
